# Reference: patent US20260285853A1, “COMPOUNDS AND METHODS FOR MODULATING SPLICING” (REMIX THERAPEUTICS INC., priority 2023, published 2026)
# Where a name gives a salt, the structure may show the parent alone.
# Legend:
# [1] = test system: HTT mRNA; test: Splicing RT-qPCR assay, canonical (CJ) and alternative (AJ) junction mRNA, K562 cells; assay type: cell-based; conditions: Homo sapiens, K562.3 cells, 24 hours; for AC50: read-out: HTT AJ (AC50, increase in AJ mRNA); for IC50: read-out: HTT CJ (IC50, decrease in CJ mRNA)
# How it was run: (§1)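 Readout is one-step RT-qPCR of canonical and alternative exon junctions, housekeeper-normalized (GAPDH or GUSB), ΔΔCt against DMSO giving RQ and percentage response over set ΔCt assay windows. Compounds dosed 24 h to K562 cells, 11 points, 3-fold, max 10 uM, DMSO ≤0.25%.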
# [2] = test system: MYB mRNA; test: as above; assay type: cell-based; conditions: Homo sapiens, K562.3 cells, 24 hours; for AC50: read-out: MYB AJ (AC50, increase in AJ mRNA); for IC50: read-out: MYB CJ (IC50, decrease in CJ mRNA)
# How it was run: as §1
Compound,AC50 [1] [µM],IC50 [1] [µM],AC50 [2] [µM],IC50 [2] [µM]
"Cc1cn2cc(NC(=O)c3ccc(N4C[C@@H](C)N[C@@H](C)C4)c4[nH]cnc34)cc(F)c2n1 [Compound 220, 7-[(3R,5S)-3,5-dimethylpiperazin-1-yl]-N-(8-fluoro-2-methyl-imidazo[1,2-a]pyridin-6-yl)-1H-1,3-benzodiazole-4-carboxamide]",> 10,1 to 10,0.1 to 1,0.1 to 1
"Cc1cn2cc(NC(=O)c3ccc(N4C[C@H](C)N[C@@H](C)C4)c4[nH]cnc34)cc(F)c2n1 [Compound 221, 7-[(3S,5S)-3,5-dimethylpiperazin-1-yl]-N-(8-fluoro-2-methylimidazo[1,2-a]pyridin-6-yl)-1H-1,3-benzodiazole-4-carboxamide]",> 10,> 10,0.1 to 1,0.1 to 1
"Cc1cn2cc(NC(=O)c3ccc(N4C[C@@H](C)N[C@@H](C)C4)c4[nH]c(C)nc34)cc(F)c2n1 [Compound 225, 7-[(3R,5S)-3,5-dimethylpiperazin-1-yl]-N-(8-fluoro-2-methylimidazo[1,2-a]pyridin-6-yl)-2-methyl-1H-1,3-benzodiazole-4-carboxamide]",1 to 10,1 to 10,1 to 10,1 to 10
"Cc1cn2nc(C(=O)Nc3ccc(N4C[C@@H](C)N[C@@H](C)C4)c4cc[nH]c34)cc(C)c2n1 [Compound 237, N-(4-[(3R,5S)-3,5-dimethylpiperazin-1-yl]-1H-indol-7-yl)-2,8-dimethylimidazo[1,2-b]pyridazine-6-carboxamide]",1 to 10,1 to 10,1 to 10,1 to 10
"Cc1cn2cc(NC(=O)c3ccc(N4C[C@H](C)N[C@@H](C)C4)c4[nH]nnc34)cc(F)c2n1 [Compound 242, 7-[(3S,5S)-3,5-dimethylpiperazin-1-yl]-N-(8-fluoro-2-methyl-imidazo[1,2-a]pyridin-6-yl)-1H-benzotriazole-4-carboxamide]",> 10,> 10,> 10,> 10
"Cc1cn2cc(NC(=O)c3ccc(N4C[C@@H](C)N[C@@H](C)C4)c4[nH]nnc34)cc(F)c2n1 [Compound 243, 7-((3S,5R)-3,5-dimethylpiperazin-1-yl)-N-(8-fluoro-2-methylimidazo[1,2-a]pyridin-6-yl)-1H-benzo[d][1,2,3]-triazole-4-carboxamide hydrochloride]",> 10,> 10,> 10,> 10
"Cc1cn2cc(NC(=O)c3c(F)cc(N4CCNCC4)c4occc34)cc(F)c2n1 [Compound 247, 5-fluoro-N-(8-fluoro-2-methylimidazo-[1,2-a]pyridin-6-yl)-7-piperazin-1-yl-benzofuran-4-carboxamide]",> 10,> 10,> 10,> 10
"Cc1cn2cc(NC(=O)c3ccc(N4CCNC(C(F)(F)F)C4)c4cn(C)nc34)cc(F)c2n1 (stereo not drawn) [Compound 248, N-(8-fluoro-2-methyl-imidazo[1,2-a]-pyridin-6-yl)-2-methyl-4-[3-(trifluoro-methyl)piperazin-1-yl]indazole-7-carboxamide]",> 10,> 10,1 to 10,1 to 10
"Cc1cn2cc(NC(=O)c3ccc(N4CCNC(C(F)F)C4)c4cn(C)nc34)cc(F)c2n1 (stereo not drawn) [Compound 249, 4-[3-(difluoromethyl)piperazin-1-yl]-N-(8-fluoro-2-methylimidazo[1,2-a]pyridin-6-yl)-2-methyl-indazole-7-carboxamide]",1 to 10,1 to 10,0.1 to 1,0.1 to 1
"COc1cc(N2CCNCC2)c2cn(C)nc2c1C(=O)Nc1cc(F)c2nc(C)cn2c1 [Compound 250, N-(8-fluoro-2-methyl-imidazo[1,2-a]pyridin-6-yl)-6-methoxy-2-methyl-4-piperazin-1-yl-indazole-7-carboxamide]",> 10,> 10,> 10,> 10
"Cc1cn2cc(NC(=O)c3ccc(N4CCNCC4=O)c4cn(C)nc34)cc(F)c2n1 [Compound 251, N-(8-fluoro-2-methylimidazo[1,2-a]-pyridin-6-yl)-2-methyl-4-(2-oxopiperazin-1-yl)-2H-indazole-7-carboxamide 2,2,2-trifluoroacetate]",> 10,> 10,> 10,> 10
"Cc1cn2cc(NC(=O)c3ccc(N4C[C@@H](C)N[C@@H](C)C4)c4nn(C)nc34)cc(F)c2n1 [Compound 252, 7-((3S,5R)-3,5-dimethyl-piperazin-1-yl)-N-(8-fluoro-2-methyl-imidazo[1,2-a]pyridin-6-yl)-2-methyl-2H-benzo[d][1,2,3]triazole-4-carboxamide 2,2,2-trifluoroacetate]",0.1 to 1,0.1 to 1,0.1 to 1,0.1 to 1
"Cc1cn2cc(NC(=O)c3ccc(N4CCNCC4=O)c4[nH]cnc34)cc(F)c2n1 [Compound 257, N-(8-fluoro-2-methyl-imidazo[1,2-a]-pyridin-6-yl)-7-(2-oxopiperazin-1-yl)-1H-benzimidazole-4-carboxamide]",> 10,> 10,> 10,> 10
"Cc1cn2cc(NC(=O)c3ccc(N4C[C@@H](C)N[C@@H](C)C4)c4nnn(C)c34)cc(F)c2n1 [Compound 261, 7-[(3R,5S)-3,5-dimethylpiperazin-1-yl]-N-(8-fluoro-2-methyl-imidazo[1,2-a]pyridin-6-yl)-3-methyl-benzotriazole-4-carboxamide]",> 10,> 10,> 10,> 10
"CO[C@H]1C[C@H](N[C@H]2CCN(c3ccc(C(=O)Nc4cc(F)c5nc(C)cn5c4)c4nn(C)cc34)C2)C1 [Compound 275, N-(8-fluoro-2-methylimidazo[1,2-a]pyridin-6-yl)-4-((S)-3-(((1r,3S)-3-methoxycyclobutyl)amino)pyrrolidin-1-yl)-2-methyl-2H-indazole-7-carboxamide]",1 to 10,1 to 10,0.1 to 1,0.1 to 1
"CO[C@H]1C[C@@H](N[C@H]2CCN(c3ccc(C(=O)Nc4cc(F)c5nc(C)cn5c4)c4nn(C)cc34)C2)C1 [Compound 277, N-(8-fluoro-2-methylimidazo[1,2-a]pyridin-6-yl)-4-((S)-3-(((1s,3R)-3-methoxy-cyclobutyl)amino)pyrrolidin-1-yl)-2-methyl-2H-indazole-7-carboxamide]",< 0.1,1 to 10,0.1 to 1,0.1 to 1
Cc1cn2cc(NS(=O)(=O)c3ccc(N4C[C@@H](C)N[C@@H](C)C4)c4cn(C)nc34)cc(F)c2n1 [Compound 279],> 10,> 10,> 10,> 10
"CCNC1CCN(c2ccc(C(=O)Nc3cc(F)c4nc(COC)cn4c3)c3nn(C)cc23)CC1 [Compound 284, 4-[4-(ethylamino)-1-piperidyl]-N-[8-fluoro-2-(methoxymethyl)imidazo[1,2-a]pyridin-6-yl]-2-methyl-indazole-7-carboxamide]",> 10,1 to 10,1 to 10,1 to 10
